# Results published in patent US20140378416A1, “SILYL-CONTAINING HETEROCYCLIC COMPOUNDS AND METHODS OF USE THEREOF FOR THE TREATMENT OF VIRAL DISEASES” (priority 2011, published 2014).
# Key:
# [1] = tested on: HCV replicon 1a; assay: Cell-based HCV replicon assay (TaqMan), genotype 1a replicon; conditions: Hepatitis C virus, 72 h, HCV 1a replicon cells, replicon RNA by TaqMan on day 3; EC90 = concentration for ΔCT=3.2 over baseline
# Protocol: (§1) Measurement of inhibition by compounds of the present invention was performed using the HCV replicon system. Several different replicons encoding different HCV genotypes or mutations were used. In addition, potency measurements were made using different formats of the replicon assay, including different ways of measurements and different plating formats. See Jan M. Vrolijk et al., A replicons-based bioassay for the measurement of interferons in patients with chronic hepatitis C, 110 J. VIROLOGICAL METHODS 201 (2003); Steven S. Carroll et al., Inhibition of Hepatitis C Virus RNA Replication by 2′-Modified Nucleoside Analogs, 278(14) J. BIOLOGICAL CHEMISTRY 11979 (2003). However, the underlying principles are common to all of these determinations, and are outlined below.
# (§2) Compounds of the present invention were assayed for cell-based anti-HCV activity using the following protocol. Replicon cells were seeded at 5000 cells/well in 96-well collagen I-coated Nunc plates in the presence of the test compound. Various concentrations of test compound, typically in 10 serial 2-fold dilutions, were added to the assay mixture, with the starting concentration ranging from 250 μM to 1 μM. The final concentration of DMSO was 0.5%, fetal bovine serum was 5%, in the assay media. Cells were harvested on day 3 by the addition of 1× cell lysis buffer (Ambion cat #8721). The replicon RNA level was measured using real time PCR (TaqMan® assay). The amplicon was located in 5B. The PCR primers were: 5B.2F, ATGGACAGGCGCCCTGA (SEQ. ID NO. 1); 5B.2R, […] (SEQ. ID NO. 2); the probe sequence was FAM-labeled CACGCCATGCGCTGCGG (SEQ. ID NO. 3). GAPDH RNA was used as endogenous control and was amplified in the same reaction as NS5B (multiplex PCR) using primers and VIC-labeled probe recommended by the manufacturer (PE Applied Biosystem). The real-time […] reactions were run on ABI PRISM 7900HT Sequence Detection System using the following program: 48° C. for 30 minutes, 95° C. for 10 minutes, 40 cycles of 95° C. for 15 sec, 60° C. for 1 minute. The ACT values (CT5B-CTGAPDH) were plotted against the concentration of test compound and fitted to the sigmoid dose-response model using XLfit4 (MDL). EC50 was defined as the concentration of inhibitor necessary to achieve ΔCT=1 over the projected baseline; EC90 the concentration necessary to achieve ΔCT=3.2 over the baseline. Alternatively, to quantitate the absolute amount of replicon RNA, a standard curve was established by including serially diluted T7 transcripts of replicon RNA in the Taqman assay. All TaqMan® reagents were from PE Applied Biosystems. Such an assay procedure was described in detail in e.g. Malcolm et al., Antimicrobial Agents and Chemotherapy 50: 1013-1020 (2006).
# (§3) HCV replicon EC50 assay data for various replicons and mutants was calculated for selected compounds of the present invention using this method and is provided in the tables above herein.
# [2] = tested on: HCV replicon 1a Y93H; assay: Cell-based HCV replicon assay (TaqMan), genotype 1a Y93H mutant replicon; conditions: Hepatitis C virus, 72 h, read-out: 1a Y93H EC90, HCV 1a Y93H mutant replicon cells, replicon RNA by TaqMan on day 3; EC90 = concentration for ΔCT=3.2 over baseline
# Protocol: as §1, §2, §3
# [3] = tested on: HCV replicon 1b; assay: Cell-based HCV replicon assay (TaqMan), genotype 1b replicon; conditions: Hepatitis C virus, 72 h, HCV 1b replicon cells, replicon RNA by TaqMan on day 3; EC90 = concentration for ΔCT=3.2 over baseline
# Protocol: as §1, §2, §3
# [4] = tested on: HCV replicon 2b; assay: Cell-based HCV replicon assay (TaqMan), genotype 2b replicon; conditions: Hepatitis C virus, 72 h, read-out: 2b EC90, HCV 2b replicon cells, replicon RNA by TaqMan on day 3; EC90 = concentration for ΔCT=3.2 over baseline
# Protocol: as §1, §2, §3
SMILES,EC90 [1] [nM],EC90 [2] [nM],EC90 [3] [nM],EC90 [4] [nM]
COC(=O)N[C@H](C(=O)N1CCC[C@H]1c1ncc(-c2ccc(-c3ccc(-c4cnc([C@@H]5C[Si](C)(C)CN5C(=O)[C@@H](NC(=O)OC)C(C)C)[nH]4)c(OC)c3)cc2)[nH]1)C(C)C [Compound 70],> 1,> 1000,0.006,
COC(=O)N[C@H](C(=O)N1C[Si](C)(C)C[C@H]1c1ncc(-c2ccc(-c3ccc(-c4cnc([C@@H]5C[C@H]6C[C@H]6N5C(=O)[C@@H](NC(=O)OC)C5CCOCC5)[nH]4)cc3)cc2)[nH]1)C1CCOCC1 [Compound 48],0.18,144,,9
CC(C)(C)OC(=O)N1C[Si](C)(C)C[C@H]1c1nc(Cl)c(-c2ccc(-c3ccc(-c4[nH]c([C@@H]5C[C@H]6C[C@H]6N5C(=O)OC(C)(C)C)nc4Cl)cc3)cc2)[nH]1 [Compound 49],> 1000,> 1000,,> 1000
COC(=O)N[C@H](C(=O)N1C[Si](C)(C)C[C@H]1c1ncc(-c2ccc(-c3ccc(-c4[nH]c([C@@H]5C[C@H]6C[C@H]6N5C(=O)[C@@H](NC(=O)OC)C(C)C)nc4F)cc3)cc2)[nH]1)C(C)C [Compound 44],0.17,285,,168
C[Si]1(C)C[C@@H](c2ncc(-c3ccc(-c4ccc(-c5[nH]c([C@@H]6CCCN6C(=O)[C@H]6CCCO6)nc5Cl)cc4)cc3)[nH]2)N(C(=O)[C@H]2CCCO2)C1 [Compound 67],211,510,,> 1000
COC(=O)N[C@@H](C(=O)N1CCC[C@@H]1c1ncc(-c2ccc(-c3ccc(-c4cnc([C@H]5C[Si](C)(C)CN5C(=O)[C@H](NC(=O)OC)C5CC5)[nH]4)cc3)cc2)[nH]1)C1CC1 [Compound 23],1.16,1000,,550
COC(=O)N[C@H](C(=O)N1CCC[C@H]1c1cnc(-c2ccc(-c3ccc(-c4cnc([C@@H]5C[Si](C)(C)CN5C(=O)[C@@H](NC(=O)OC)C(C)C)[nH]4)cc3)cc2)[nH]1)C(C)C [Compound 72],0.092,330,0.005,
COC(=O)N[C@H](C(=O)N1C[Si]2(CCCC2)C[C@H]1c1cnc(-c2ccc(-c3ccc(-c4cnc([C@@H]5CCCN5C(=O)[C@@H](NC(=O)OC)C(C)C)[nH]4)cc3)cc2)[nH]1)C(C)C [Compound 73],0.38,973,0.006,
COC(=O)N[C@H](C(=O)N1CCC[C@H]1c1cnc(-c2ccc3c(c2)[Si](C)(C)c2cc(-c4cnc([C@@H]5CCCN5C(=O)[C@@H](NC(=O)OC)C(C)C)[nH]4)ccc2-3)[nH]1)C(C)C [Compound 82],0.076,811,0.043,
CC(C)(C)OC(=O)N1C[Si](C)(C)C[C@H]1c1ncc(-c2ccc(-c3ccc(-c4[nH]c([C@@H]5CCCN5C(=O)OC(C)(C)C)nc4C4CC4)cc3)cc2)[nH]1 [Compound 61],81,655,,
COC(=O)N[C@H](C(=O)N1C[Si](C)(C)C[C@H]1c1ncc(-c2ccc(-c3ccc(-c4cnc([C@@H]5[C@H]6CC[C@H](C6)N5C(=O)[C@@H](NC(=O)OC)C(C)C)[nH]4)cc3)cc2)[nH]1)C(C)C [Compound 5],0.21,203,0.004,
COC(=O)N[C@H](C(=O)N1C[Si](C)(C)C[C@H]1c1ncc(-c2ccc(-c3ccc(-c4[nH]c([C@@H]5CCCN5C(=O)[C@@H](NC(=O)OC)C5CCOCC5)nc4C4CC4)cc3)cc2)[nH]1)C1CCOCC1 [Compound 66],0.07,88,,1.6
COC(=O)N[C@H](C(=O)N1C[C@H](F)C[C@H]1c1ncc(-c2ccc(-c3ccc(-c4cnc([C@@H]5C[Si](C)(C)CN5C(=O)[C@@H](NC(=O)OC)C(C)C)[nH]4)cc3)cc2)[nH]1)C(C)C [Compound 7],0.77,229,0.009,
COC(=O)N[C@H](C(=O)N1C[Si](C)(C)C[C@H]1c1ncc(-c2ccc(-c3ccc(-c4[nH]c([C@@H]5CCCN5C(=O)[C@@H](NC(=O)OC)C(C)C)nc4C4CC4)cc3)cc2)[nH]1)C(C)C [Compound 63],0.69,882,,451
COC(=O)N[C@H](C(=O)N1C[Si](C)(C)C[C@H]1c1ncc(-c2ccc(-c3ccc4[nH]c([C@@H]5CC(F)(F)CN5C(=O)[C@@H](NC(=O)OC)C(C)C)nc4c3)cc2F)[nH]1)C(C)C [Compound 71],> 1,> 1000,0.005,
CC(C)(C)OC(=O)N1CCC[C@H]1C(=O)Nc1nn(C(=O)OC(C)(C)C)c2ccc(-c3ccc(-c4cnc([C@@H]5C[Si](C)(C)CN5C(=O)OC(C)(C)C)[nH]4)cc3)cc12 [Compound 77],> 1000,> 10000,,
CC(C)(C)OC(=O)N1C[Si](C)(C)C[C@H]1c1ncc(-c2ccc(-c3ccc(-c4ncc([C@@H]5C[C@H]6C[C@H]6N5C(=O)OC(C)(C)C)[nH]4)cc3)cc2)[nH]1 [Compound 68],> 1000,> 1000,,
COC(=O)N[C@H](C(=O)N1CCC[C@H]1c1ncc(-c2ccc(-c3ccc4[nH]c([C@@H]5C[Si](C)(C)CN5C(=O)[C@@H](NC(=O)OC)C(C)C)nc4c3)cc2)[nH]1)C(C)C [Compound 9],> 1,> 1000,< 1,
COC(=O)N[C@H](C(=O)N1C[C@H](F)C[C@H]1c1ncc(-c2ccc(C#Cc3ccc(-c4cnc([C@@H]5C[Si](C)(C)CN5)[nH]4)cc3)cc2)[nH]1)C(C)C [Compound 57],780,> 1000,,
COC(=O)N[C@H](C(=O)N1C[Si](C)(C)C[C@H]1c1ncc(-c2ccc(-c3ccc(-c4cnc([C@@H]5C[Si](C)(C)CN5C(=O)[C@@H](NC(=O)OC)C(C)C)[nH]4)cc3)cc2)[nH]1)C(C)C [Compound 6],0.98,> 1000,0.015,
COC(=O)N[C@H](C(=O)N1CC(F)(F)C[C@H]1c1cnc(-c2ccc(-c3ccc(-c4cnc([C@@H]5C[Si](C)(C)CN5C(=O)[C@@H](NC(=O)OC)C(C)C)[nH]4)cc3)cc2)[nH]1)C(C)C [Compound 74],0.27,644,,
COC(=O)N[C@H](C(=O)N1CCC[C@H]1c1ncc(-c2ccc(-c3ccc(-c4cnc([C@@H]5C[Si](C)(C)CN5C(=O)[C@@H](NC(=O)OC)C(C)C)[nH]4)cc3)cc2)[nH]1)C(C)C [Compound 3],0.16,398,0.005,
C[Si]1(C)CN[C@H](c2ncc(-c3ccc(-c4ccc(-c5cnc([C@@H]6CCCN6)[nH]5)cc4)cc3)[nH]2)C1 [Compound 2],> 100,,> 1000,
COC(=O)N[C@H](C(=O)N1C[C@H](F)C[C@H]1c1ncc(-c2ccc(C#Cc3ccc(-c4cnc([C@@H]5C[Si](C)(C)CN5C(=O)OC(C)(C)C)[nH]4)cc3)cc2)[nH]1)C(C)C [Compound 56],681,> 1000,,
CC(C)(C)OC(=O)N1CCC[C@H]1C(=O)Nc1n[nH]c2ccc(-c3ccc(-c4cnc([C@@H]5C[Si](C)(C)CN5C(=O)OC(C)(C)C)[nH]4)cc3)cc12 [Compound 76],> 1000,> 10000,,
COC(=O)N[C@H](C(=O)N1CC(F)(F)C[C@H]1c1ncc(-c2ccc(-c3ccc(-c4cnc([C@@H]5C[Si](C)(C)CN5C(=O)[C@@H](NC(=O)OC)C(C)C)[nH]4)cc3)cc2)[nH]1)C(C)C [Compound 4],0.1,272,0.007,
CC(C)(C)OC(=O)N1CCC[C@H]1c1cnc(-c2ccc3c(c2)[Si](C)(C)c2cc(-c4cnc([C@@H]5CCCN5C(=O)OC(C)(C)C)[nH]4)ccc2-3)[nH]1 [Compound 80],> 1,,467,
